Source: patent US10155021B2, “Antimicrobial 4-oxoquinolizines” (Emergent Product Development Gaithersburg Inc., priority 2011, dated 2018)
In brackets after ≈: the same amount, converted by molar mass. Like-named read-outs stand apart in the source and are kept apart here.

Tests used:
A. baumannii J2 [1] = test: MIC without and with sub-inhibitory polymyxin B (Example 4); format: cell-based, Acinetobacter baumannii; conditions: Acinetobacter baumannii, J2, A. baumannii J2, without polymyxin B, read-out: MIC without PB
A. baumannii A489 = test: as above; format: cell-based, Acinetobacter baumannii; conditions: Acinetobacter baumannii, A489, A. baumannii A489, without polymyxin B, read-out: MIC without PB
A. baumannii A473 [2] = test: as above; format: cell-based, Acinetobacter baumannii; conditions: Acinetobacter baumannii, A473, A. baumannii A473, without polymyxin B, read-out: MIC without PB
A. baumannii A472 [3] = test: as above; format: cell-based, Acinetobacter baumannii; conditions: Acinetobacter baumannii, A472, A. baumannii A472, without polymyxin B, read-out: MIC without PB
A. baumannii A329 [4] = test: Preliminary MBC without and with sub-inhibitory polymyxin B (Example 4); format: cell-based, Acinetobacter baumannii; conditions: Acinetobacter baumannii, A329, A. baumannii A329, without polymyxin B, read-out: MBC without PB
[5] = tested on: Acinetobacter sp. (H064200250); test: as above; format: cell-based; conditions: Acinetobacter, without polymyxin B, preliminary MBC, read-out: MBC without PB
Outline: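 Incubation 18-20 h, 37° C. MBC = lowest conc. with ~90% fewer colonies than positive control (single/no colonies).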

A. baumannii A401 [6] = test: MIC without and with sub-inhibitory polymyxin B (Example 4); format: cell-based, Acinetobacter baumannii; conditions: for MIC: Acinetobacter baumannii, A401, A baumannii A 401, without polymyxin B, read-out: MIC without PB
A. baumannii A401 [7] = test: Preliminary MBC without and with sub-inhibitory polymyxin B (Example 4); format: cell-based, Acinetobacter baumannii; conditions: Acinetobacter baumannii, A401, A baumannii A 401, without polymyxin B, preliminary MBC, read-out: MBC without PB
A. baumannii A390 = test: as above; format: cell-based, Acinetobacter baumannii; conditions: Acinetobacter baumannii, A390, A. baumannii A390, without polymyxin B, preliminary MBC, read-out: MBC without PB
[8] = tested on: resistant strains of A. baumannii and one strain of Acinetobacter sp.; test: MIC without and with sub-inhibitory polymyxin B, whole panel / MIC ranges (Example 4; also strains not listed separately); format: cell-based; conditions: for MIC: Acinetobacter baumannii
A. baumannii ATCC 19606 = test: MIC without and with sub-inhibitory polymyxin B (Example 4); format: cell-based, Acinetobacter baumannii; conditions: Acinetobacter baumannii
[9] = tested on: Acinetobacter sp. (H064200250); test: as above; format: cell-based; conditions: Acinetobacter, without polymyxin B, read-out: MIC without PB
A. baumannii A473 [10] = test: Preliminary MBC without and with sub-inhibitory polymyxin B (Example 4); format: cell-based, Acinetobacter baumannii; conditions: Acinetobacter baumannii, A473, A. baumannii A473, without polymyxin B, read-out: MBC without PB
A. baumannii J2 [11] = test: as above; format: cell-based, Acinetobacter baumannii; conditions: Acinetobacter baumannii, J2, A. baumannii J2, without polymyxin B, preliminary MBC, read-out: MBC without PB
A. baumannii A 401 = test: MIC determination for Acinetobacter strains (Example 3); format: cell-based; conditions: A401, LEV R, CIP R, AMK R, TET R
[12] = tested on: Acinetobacter spp. H064200250; test: as above; format: cell-based, Acinetobacter sp.; conditions: LEV R, CIP R, MRP R, IMP I
A. baumannii A329 [13] = test: MIC without and with sub-inhibitory polymyxin B (Example 4); format: cell-based, Acinetobacter baumannii; conditions: Acinetobacter baumannii, A329, A. baumannii A329, without polymyxin B, read-out: MIC without PB
A. baumannii A472 [14] = test: Preliminary MBC without and with sub-inhibitory polymyxin B (Example 4); format: cell-based, Acinetobacter baumannii; conditions: Acinetobacter baumannii, A472, A. baumannii A472, without polymyxin B, 1st experiment, read-out: MBC without PB
P. aeruginosa 1388-3-02 = test: MIC, panel of quinolone-resistant strains (CLSI); format: cell-based; conditions: Pseudomonas aeruginosa, 1388302; CIP R, POL R
Pseudomonas ssp PER-1 = test: MIC, panel of quinolone-resistant strains (CLSI); format: cell-based, Pseudomonas spp; conditions: PER1, CIP R, ESBL
P. aeruginosa 143-3-03 = test: MIC, panel of quinolone-resistant strains (CLSI); format: cell-based; conditions: Pseudomonas aeruginosa, 143303; CIP I, POL R
E. coli 2906 = test: MIC, panel of quinolone-resistant strains (CLSI); format: cell-based; conditions: Escherichia coli, CIP R
E. coli CTX-M-15 = test: MIC, panel of quinolone-resistant strains (CLSI); format: cell-based; conditions: Escherichia coli, CTXM15; CIP R, ESBL
Klebsiella ssp KPC-3 = test: MIC, panel of quinolone-resistant strains (CLSI); format: cell-based, Klebsiella spp; conditions: KPC3, CIP R, ESBL
[15] = Acinetobacter spp. H064200250 (OXA51), 2nd experiment
[16] = Acinetobacter spp. H064200250, 1st experiment
[17] = read-out: MIC range without PB 01-10-2008 n = 8, without polymyxin B, 1st experiment, 8 strains
[18] = without polymyxin B, 2nd experiment, 11 strains, read-out: MIC range without PB 14-10-2008 n = 11
[19] = ATCC19606, A. baumannii ATCC 19606, without polymyxin B, 1st experiment, read-out: MIC without PB
[20] = ATCC19606, A. baumannii ATCC 19606, without polymyxin B, 2nd experiment, visual reading, read-out: MIC without PB
[21] = Acinetobacter spp. H064200250 (OXA51), 2nd experiment, visual reading

For `Cc1c(-c2ccc(N)c(F)c2)ccn2c(=O)c(C(=O)O)cc(C3CC3)c12` [Compound 1, 8-(3-fluoro-4-amino-phenyl)-1-cyclopropyl-9-methyl-4-oxo-quinolizine-3-carboxylic acid], the MIC (A. baumannii J2 [1]; 1st experiment) was 8 µg/mL (≈ 22.7 µM), the MIC (A. baumannii J2 [1]; 2nd experiment, visual reading) was 16 µg/mL (≈ 45.4 µM) and the MIC (A. baumannii A489; 1st experiment) was 4 µg/mL (≈ 11.4 µM). It also gave an MIC (A. baumannii A489; 2nd experiment, visual reading) of 16 µg/mL (≈ 45.4 µM), an MIC (A. baumannii A473 [2]; 1st experiment) of 4 µg/mL (≈ 11.4 µM) and an MIC (A. baumannii A473 [2]; 2nd experiment, visual reading) of 8 µg/mL (≈ 22.7 µM). It also gave an MIC (A. baumannii A472 [3]; 1st experiment) of 8 µg/mL (≈ 22.7 µM), an MIC (A. baumannii A472 [3]; 2nd experiment, visual reading) of 8 µg/mL (≈ 22.7 µM) and an MBC (A. baumannii A329 [4]; 1st experiment) of 16 µg/mL (≈ 45.4 µM). The MBC [5, 15] was 32 µg/mL (≈ 90.8 µM), the MBC [5, 16] was 8 µg/mL (≈ 22.7 µM) and the MIC ratio without/with polymyxin B (A. baumannii A401 [6]; A baumannii A 401, ratio MIC without PB to MIC + PB, PB 0.06 μg/ml, 2nd experiment) was at least 512 µg/mL. The MIC (A. baumannii A401 [6]; 1st experiment) was 4 µg/mL (≈ 11.4 µM), the MIC (A. baumannii A401 [6]; 2nd experiment, visual reading) was 16 µg/mL (≈ 45.4 µM) and the MBC (A. baumannii A401 [7]; 2nd experiment) was 8 µg/mL (≈ 22.7 µM). The MBC (A. baumannii A401 [7]; 1st experiment) was 16 µg/mL (≈ 45.4 µM), the MBC (A. baumannii A390; 2nd experiment) was 16 µg/mL (≈ 45.4 µM) and the MBC (A. baumannii A390; 1st experiment) was 16 µg/mL (≈ 45.4 µM). It also gave an MIC [8, 17] of 1 to 32 µg/mL (≈ 2.84 to 90.8 µM), an MIC [8, 18] of 4 to 32 µg/mL (≈ 11.4 to 90.8 µM) and an MIC (A. baumannii ATCC 19606; [19]) of 0.25 µg/mL (≈ 0.709 µM). It also gave an MIC (A. baumannii ATCC 19606; [20]) of 0.25 µg/mL (≈ 0.709 µM), an MIC [9, 21] of 16 µg/mL (≈ 45.4 µM) and an MIC [9, 16] of 8 µg/mL (≈ 22.7 µM). The MBC (A. baumannii A473 [10]; 1st experiment) was 4 µg/mL (≈ 11.4 µM), the MBC (A. baumannii A473 [10]; 2nd experiment) was 8 µg/mL (≈ 22.7 µM) and the MBC (A. baumannii J2 [11]; 2nd experiment) was 16 µg/mL (≈ 45.4 µM). It also gave an MBC (A. baumannii J2 [11]; 1st experiment) of 8 µg/mL (≈ 22.7 µM), an MIC (A. baumannii A 401) of 4 µg/mL (≈ 11.4 µM) and an MIC [12] of 8 µg/mL (≈ 22.7 µM). The MIC (A. baumannii A329 [13]; 1st experiment) was 16 µg/mL (≈ 45.4 µM), the MIC (A. baumannii A329 [13]; 2nd experiment, visual reading) was 16 µg/mL (≈ 45.4 µM) and the MBC (A. baumannii A472 [14]) was 8 µg/mL (≈ 22.7 µM).

`C[C@H]1COc2c(N3CCN(C)CC3)c(F)cc3c(=O)c(C(=O)O)cn1c23` [Levofloxacin, reference compound] gave an MIC (P. aeruginosa 1388-3-02) of 32 µg/mL (≈ 88.6 µM), an MIC (Pseudomonas ssp PER-1) of 32 µg/mL (≈ 88.6 µM) and an MIC (A. baumannii J2 [1]; 1st experiment) of 32 µg/mL (≈ 88.6 µM). The MIC (A. baumannii J2 [1]; 2nd experiment, visual reading) was 32 µg/mL (≈ 88.6 µM), the MIC (A. baumannii A489; 2nd experiment, visual reading) was 32 µg/mL (≈ 88.6 µM) and the MIC (P. aeruginosa 143-3-03) was 8 µg/mL (≈ 22.1 µM). For the same compound, the MBC (A. baumannii A329 [4]; 1st experiment) was 32 µg/mL (≈ 88.6 µM), the MBC (A. baumannii A329 [4]; 2nd experiment) was 32 µg/mL (≈ 88.6 µM) and the MBC [5, 15] was 16 µg/mL (≈ 44.3 µM). For the same compound, the MBC [5, 16] was 16 µg/mL (≈ 44.3 µM), the MIC (E. coli 2906) was 32 µg/mL (≈ 88.6 µM) and the “fold greater activity (fold lower MIC) in presence of polymyxin B compared to without polymyxin B” value [8] was “not significantly affected”. For the same compound, the MIC ([8]; A. baumannii A14, without polymyxin B, 1st experiment, read-out: MIC without PB) was 32 µg/mL (≈ 88.6 µM), the MIC ([8]; A. baumannii A14, without polymyxin B, 2nd experiment, visual reading, read-out: MIC without PB) was 32 µg/mL (≈ 88.6 µM) and the MIC ([8]; NCTC13301, A. baumannii NCTC 13301, without polymyxin B, 1st experiment, read-out: MIC without PB) was 32 µg/mL (≈ 88.6 µM). It also gave an MIC ([8]; NCTC13301, A. baumannii NCTC 13301, without polymyxin B, 2nd experiment, visual reading, read-out: MIC without PB) of 32 µg/mL (≈ 88.6 µM), an MIC [8, 17] of 8 to 32 µg/mL (≈ 22.1 to 88.6 µM) and an MIC [8, 18] of 4 to 32 µg/mL (≈ 11.1 to 88.6 µM). For the same compound, the MIC (A. baumannii ATCC 19606; [19]) was 1 µg/mL (≈ 2.77 µM), the MIC (A. baumannii ATCC 19606; [20]) was 1 µg/mL (≈ 2.77 µM) and the MIC (A. baumannii ATCC 19606; ATCC19606, read-out: MIC +0.06 μg/ml PB, read with alamar blue, A. baumannii ATCC 19606, +0.06 μg/ml polymyxin B, 2nd experiment, MIC read with alamar blue) was 0.5 µg/mL. It also gave an MIC [9, 21] of 16 µg/mL (≈ 44.3 µM), an MIC [9, 16] of 16 µg/mL (≈ 44.3 µM) and an MBC (A. baumannii J2 [11]; 2nd experiment) of 32 µg/mL (≈ 88.6 µM). It also gave an MBC (A. baumannii J2 [11]; 1st experiment) of 32 µg/mL (≈ 88.6 µM), an MIC (E. coli CTX-M-15) of 16 µg/mL (≈ 44.3 µM) and an MIC [12] of 16 µg/mL (≈ 44.3 µM). It also gave an MIC (A. baumannii A329 [13]; 1st experiment) of 32 µg/mL (≈ 88.6 µM) and an MIC (Klebsiella ssp KPC-3) of over 128 µg/mL.
